Patent publication US10428114B2, “Type polypeptide targeting tumours” (SICHUAN UNIVERSITY, priority 2015, dated 2019)
Values after ≈ are worked out from the molar mass of the structure shown. Bridges are numbered along the chain shown (N, C = ends). Where no end group is shown, it is not given here. [ ]: non-standard residue; d: D form. GABA = NCCCC(=O)O

Assays:
[1] = system: 4T1 tumours; test: Screening of the working concentration of nRGD with doxorubicin, 4T1 model; assay type: in vivo, Balb/c mice; conditions: doxorubicin 5 mg/kg; nRGD 1, 2, 4, 8, 10 mg/kg
Method: The dose of doxorubicin was 5 mg/kg, while the nRGD concentration was 1, 2, 4, 8, 10 mg/kg, respectively.

[2] = system: 4T1 tumours; test: Pharmacological effects of docetaxel and its micells with nRGD, 4T1 tumour model; assay type: in vivo
Method: Female Balb/c mice were inoculated with 5×10^5 4T1 cells and randomly divided into 5 groups: normal saline group (N. S), TXT group, docetaxel micells group (TXT-micells), docetaxel and nRGD coadministration group (TXT+nRGD), and docetaxel micells and nRGD coadministration group (TXT-micells+nRGD). The mice were injected with 15 mg/kg TXT equivalents of drugs or various formulations on day 8, day 10 and day 12.

[3] = system: 4T1 tumours; test: Pharmacodynamics of paclitaxel and its albumin nanoparticles with nRGD, 4T1 tumour model; assay type: in vivo
Method: The mice were injected with 10 mg/kg PTX equivalents of drugs or various formulations on day 8, day 12 and day 16.

[4] = system: CoCl2-treated 4T1 and M2 type macrophages, HUVEC, untreated 4T1 cells; test: Cell uptake experiments; assay type: cell-based; conditions: HUVEC with low legumain expression and untreated 4T1 cells
From the text: (§1) The targeting ability of nRGD was studied through in vitro and in vivo experiments by the inventors.

[5] = system: 4T1 tumours; test: Pharmacological effects of lycobetaine and its nanostructured lipid carriers with nRGD, 4T1 tumour model; assay type: in vivo
Method: Normal saline group (N. S), IBT group, lycobetaine nanostructured lipid carriers group (IBT-NLC), lycobetaine and nRGD coadministration group (IBT+nRGD), and lycobetaine nanostructured lipid carriers and nRGD coadministration group (IBT-NLC+nRGD). The mice were injected with 12 mg/kg IBT equivalents of drugs or various formulations on day 8, day 9 and day 10.

[6] = mouse, in vivo
[7] = system: 4T1 tumours; test: Screening of the administration manner of nRGD with doxorubicin, 4T1 model; assay type: in vivo, Balb/c mice; conditions: nRGD in combination with, prior to or after doxorubicin
Method: Female Balb/c mice were inoculated with 5×10^5 4 T1 cells and randomly divided into 3 groups. nRGD was administered in combination with doxorubicin, nRGD was administered prior to doxorubicin or after doxorubicin.

[8] = system: glioma; test: Glioma model survival; assay type: in vivo, mice; conditions: lycobetaine and octreotide liposomes, peptide as a mixture or on the liposome surface
From the text: Mice having glioma were randomly divided into 9 groups, 20 mice each: normal saline group (N.S), teniposide group, free lycobetaine and octreotide group (free IBT & OCT), lycobetaine and octreotide PEGylated liposomes group (PEG-Liposome), liposomes and iRGD coadministration group (PEG-Liposome+iRGD), liposomes and nRGD coadministration group (PEG-Liposome+nRGD), iRGD modified lycobetaine and octreotide PEGylated liposomes (iRGD-Liposome), nRGD modified lycobetaine and octreotide PEGylated liposomes (nRGD-Liposome), liposomes and nRGD coadministration group (blank). The mice were injected with 10 mg/kg IBT and […] OCT equivalents of drugs or various formulations on day 5, day 7, day 9, day 11 and day 12. As positive control group, mice were injected with 10 mg/kg teniposide on day 5, day 7, day 9, day 11 and day 12. […] The survival of the mice was recorded daily and the survival curve was plotted.

[9] = system: tumour vessels and tumour-associated macrophages (TAMs); test: In vivo targeting and tumour microenvironment study in 4T1 tumours (immunofluorescence, immunohistochemistry, RT-PCR, ELISA); set-up: species or system Balb/c mice
Method: (§3) Female Balb/c mice were inoculated with 5×10^5 4 T1 cells and randomly divided into 7 groups: saline group (NS), Dox group, PEG-Lipo-Dox group, iRGD-Lipo-Dox group, nRGD-Lipo-Dox group, Dox and nRGD coadministration group (Dox+nRGD), PEGylated liposome and nRGD coadministration group (PEG-Lipo-Dox+nRGD). The mice were injected with 5 mg/kg Dox equivalents of drugs or various formulations on day 8 and day 12. The single dose of the coadministration group included two shoots; one shoot was an equivalent drug or formulation of 5 mg/kg Dox, while the other shoot was 4.8 mg/kg nRGD. The volume and body weight of the mice were measured every two days. Some mice were sacrificed for mechanism and toxicity study on day 20. The average tumour growth inhibition (TGI) was calculated after tumour weighing: TGI=(1−(mean tumour weight of treatment group/(average tumour weight of control group))×100%. The antitumour effect and mechanism were studied by HE, immunohistochemistry, RT-PCR, immunofluorescence and ELISA. Plasma samples were collected for ELISA detection. Tissue samples were evaluated for toxicity by HE staining. The remaining mice were studied for survival time.

[10] = system: 4T1 tumours; test: Evaluation of peptide-bond linked RGD-AAN peptides with doxorubicin, 4T1 model; assay type: in vivo, Balb/c mice; conditions: doxorubicin 5 mg/kg with peptide
Method: (§2) The dose of doxorubicin was 5 mg/kg for all groups. Two groups were administrated with above-mentioned peptides, respectively.

[11] = system: 4T1 tumours; test: Evaluation of 4Abu linked RGD-AAN peptides with doxorubicin, 4T1 model; assay type: in vivo, Balb/c mice; conditions: doxorubicin 5 mg/kg with peptide
Method: as §2

[12] = system: 4T1 cells; test: Median lethal dose (IC50) against 4T1 cells at 24 h; assay type: cell-based
From the text: as §1

[13] = system: HUVEC; test: Median lethal dose (IC50) against HUVEC at 24 h; assay type: cell-based; conditions: n = 3
From the text: as §1

[14] = system: 4T1 tumours; test: Pharmacodynamics of doxorubicin and its liposomes in 4T1 tumour model; assay type: in vivo, Balb/c mice; conditions: day 20
Method: as §3

[15] = system: Raw 264.7 cells; test: Median lethal dose (IC50) against Raw 264.7 cells at 24 h; assay type: cell-based
From the text: as §1

[16] = biological target: T1, legumain (UniProt O89017 18-325, limits assumed); test: cell-based or functional assay
T1 sequence (looked up): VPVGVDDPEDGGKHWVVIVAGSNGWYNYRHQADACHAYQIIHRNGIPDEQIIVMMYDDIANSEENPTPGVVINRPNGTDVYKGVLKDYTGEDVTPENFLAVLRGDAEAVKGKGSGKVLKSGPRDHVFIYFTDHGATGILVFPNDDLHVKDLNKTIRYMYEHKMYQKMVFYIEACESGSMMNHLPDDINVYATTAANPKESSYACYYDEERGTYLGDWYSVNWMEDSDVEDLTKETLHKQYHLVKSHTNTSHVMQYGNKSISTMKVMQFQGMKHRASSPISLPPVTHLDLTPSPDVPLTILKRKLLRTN

CCRGDK(NAA)GPDC (CCRGDKGPDC) [nRGD]
Dox antitumour efficacy versus nRGD concentration [1]: positively correlated with Dox antitumour efficacy | anti-tumour efficacy ([2]; 15 mg/kg TXT equivalents day 8, 10, 12 with 4.8 mg/kg nRGD): increased the anti-tumour efficacy of TXT and TXT-micells | body weight and toxicity ([2]; mouse, in vivo): did not reduce the body weight of the mice or increase the toxicity | anti-tumour efficacy ([3]; 10 mg/kg PTX equivalents day 8, 12, 16 with 4.8 mg/kg nRGD): increased the anti-tumour efficacy of PTX and PTX-BSA | body weight and toxicity ([3]; mouse, in vivo): did not reduce the body weight of the mice or increase the toxicity | cell uptake [4]: significantly reduced compared to iRGD | anti-tumour efficacy ([5]; 12 mg/kg IBT equivalents day 8, 9, 10 with 4.8 mg/kg nRGD): increased the anti-tumour efficacy of PTX and PTX-BSA | body weight and toxicity ([5]; mouse, in vivo): did not reduce the body weight of the mice or increase the toxicity | weight of mice [6]: did not reduce the weight of mice | anti-tumour effects of different manners of administration [7]: no significant differences | life period [8]: longer life period than the iRGD group | accumulation of Dox in the tumour site ([9]; tumour sections): increased the accumulation of Dox in the tumour site

CRGDNAA (not fully specified (residue 4))
efficacy of doxorubicin [10]: can improve the efficacy of doxorubicin

CRGD-4Abu-NAA (CRGD[GABA]NAA)
efficacy of doxorubicin [11]: can improve the efficacy of doxorubicin

COc1cccc2c1C(=O)c1c(O)c3c(c(O)c1C2=O)C[C@@](O)(C(=O)CO)C[C@@H]3O[C@H]1C[C@H](N)[C@H](O)[C@H](C)O1 [Dox, doxorubicin]
IC50 Dox, 4T1 CoCl2 ([12]; n = 3, CoCl2 stimulated): 16.54 ± 2.57 µg/mL (≈ 30.4 µM) | IC50 Dox, 4T1 control ([12]; n = 3, untreated cells): 26.56 ± 1.96 µg/mL (≈ 48.9 µM) | IC50 Dox, HUVEC [13]: 18.12 ± 6.13 µg/mL (≈ 33.3 µM) | tumour weight ([14]; 5 mg/kg Dox equivalents on day 8 and day 12, coadministration with 4.8 mg/kg nRGD): 1592.0 ± 98.0 mg | tumour growth inhibition rate (TGI) ([14]; from tumour weight versus control group): 26.3% | IC50 Dox, Raw264.7 IL-4 ([15]; n = 3, IL-4 stimulated): 0.36 ± 0.07 µg/mL (≈ 0.662 µM) | IC50 Dox, Raw264.7 LPS ([15]; n = 3, LPS stimulated): 0.81 ± 0.22 µg/mL (≈ 1.49 µM) | IC50 Dox, Raw264.7 Control ([15]; n = 3, untreated cells): 0.41 ± 0.08 µg/mL (≈ 0.754 µM) | number of regulatory T cells and MDSCs at the tumour sites ([9]; mouse, in vivo): increased

c(RGDfK)AAN (cyclo(RGD[dF]KAAN); also: attachment point of AAN on cyclic RGDfK not given here)
efficacy of doxorubicin [10]: can improve the efficacy of doxorubicin

c(RGDfK)-4Abu-AAN (cyclo(RGD[dF]K[GABA]AAN); not fully specified)
efficacy of doxorubicin [11]: can improve the efficacy of doxorubicin

B1: nRGD polypeptide CCRGDK(NAA)GPDC, coupled to the surface of doxorubicin liposomes (nRGD-Lipo-Dox) (peptide)
peptide: CCRGDKGPDC
modifications: disulfide 2-10; not fully specified (residue 6); printed as CCRGDK(NAA)GPDC; also: coupled to Mal-PEG2000-DSPE liposome via cysteine
Median lethal dose (IC50) of Dox, 4T1 cells stimulated with CoCl2, 24 h [16]: 37.9 µg/mL | Median lethal dose (IC50) of Dox, Raw264.7 cells stimulated with IL-4, 24 h [16]: 23.5 µg/mL
